Results on one compound are retold here after article PMC7946228, “Discovery of novel candidates for anti-liposarcoma therapies by medium-scale high-throughput drug screening” (PLoS ONE, 2021).

What is called Cmax is the maximum level reached in the sampled fluid or tissue.

For series [1], the system named is FU-DDLS-1 liposarcoma cell line. Kind of series: CellTiter-Glo viability, GR50, 72h. Type of series: cell-based, human. Conditions: FU-DDL S-1, 72h; read-out: Half maximum effective concentration corrected for cell growth (GR50). On the procedure:
(§1) Cell viability was measured using the CellTiter-Glo Luminescent Cell Viability Assay (Promega, Wisconsin, United States). For each experiment the same cell numbers were seeded as for the proliferation experiments. Seven drug concentrations were used, starting from 100μM with 10-fold dilutions and also a vehicle control appropriate for each drug (DMSO or ethanol). After 72h of drug or vehicle control treatment levels of ATP were measured with CellTiter-Glo. The data from six to nine biological replicates, each with three technical replicates were collected. A nonlinear regression model with different four-parameter log-logistic function was used for modelling of the drug dose-response using ‘GRmetrics’ R package version 1.8.1 [26]. The calculated GR50 metric is equivalent to the IC50 metric but takes into account the growth rate of cells. Therefore, it estimates better the effect of the compound on cell viability and allows for comparison between different cell lines with different growth rates.
On the technique in general: In ATP-based viability assays light output follows the ATP content of the culture.

Series [2] relates to GOT3 liposarcoma cell line. As to the kind of experiment: CellTiter-Glo viability, GR50, 72h. Type of series: cell-based, human. The following applies: GOT3, 72h; read-out: Half maximum effective concentration corrected for cell growth (GR50). On the procedure:
as §1

Series [3] concerns LPS141 liposarcoma cell line. Kind of series: CellTiter-Glo viability, GR50, 72h. The following applies: LPS 141, 72h; read-out: Half maximum effective concentration corrected for cell growth (GR50). Format: cell-based, human. As to the method: as §1
The subject of series [4] is LPS510 liposarcoma cell line. Kind of series: CellTiter-Glo viability, GR50, 72h. The following applies: LPS 510, 72h; read-out: Half maximum effective concentration corrected for cell growth (GR50). Type of series: cell-based, human. As to the method: as §1
In series [5] the test system is LPS853 liposarcoma cell line. As to the kind of experiment: CellTiter-Glo viability, GR50, 72h. Type of series: cell-based, human. The following applies: LPS 853, 72h; read-out: Half maximum effective concentration corrected for cell growth (GR50). On the procedure:
as §1

Series [6] has as its system LS2 liposarcoma cell line. As to the kind of experiment: CellTiter-Glo viability, GR50, 72h. Format: cell-based, human. Conditions: LS2, 72h; read-out: Half maximum effective concentration corrected for cell growth (GR50). As to the method: as §1
In series [7] the test system is LiSa-2 liposarcoma cell line. Kind of series: CellTiter-Glo viability, GR50, 72h. The following applies: LiSa-2, 72h; read-out: Half maximum effective concentration corrected for cell growth (GR50). Type of series: cell-based, human. On the procedure:
as §1

Series [8] deals with NRH-LS1 liposarcoma cell line. As to the kind of experiment: CellTiter-Glo viability, GR50, 72h. Type of series: cell-based, human. Conditions: NRH-LS1, 72h; read-out: Half maximum effective concentration corrected for cell growth (GR50). As to the method: as §1
The subject of series [9] is SA-4 liposarcoma cell line. Kind of series: CellTiter-Glo viability, GR50, 72h. Conditions: SA-4, 72h; read-out: Half maximum effective concentration corrected for cell growth (GR50). Format: cell-based, human. On the procedure: as §1
The test system of series [10] is SW872 liposarcoma cell line. As to the kind of experiment: CellTiter-Glo viability, GR50, 72h. Format: cell-based, human. The following applies: SW 872, 72h; read-out: Half maximum effective concentration corrected for cell growth (GR50). On the procedure:
as §1

In series [11] the test system is T1000 liposarcoma cell line. Kind of series: CellTiter-Glo viability, GR50, 72h. Type of series: cell-based, human. The following applies: T1000, 72h; read-out: Half maximum effective concentration corrected for cell growth (GR50). As to the method: as §1
Series [12] deals with T449 liposarcoma cell line. Kind of series: CellTiter-Glo viability, GR50, 72h. Format: cell-based, human. The following applies: T449, 72h; read-out: Half maximum effective concentration corrected for cell growth (GR50). As to the method:
as §1

Series [13] relates to T778 liposarcoma cell line. Kind of series: CellTiter-Glo viability, GR50, 72h. Type of series: cell-based, human. The following applies: T778, 72h; read-out: Half maximum effective concentration corrected for cell growth (GR50). As to the method: as §1
The subject of series [14] is liposarcoma cell lines. As to the kind of experiment: IncuCyte cell proliferation assay (growth reducing/arresting concentration). Type of series: cell-based, human. Conditions: complete growth arrest between 96 and 120h. As to the method:
The cellular proliferation rate was measured using the IncuCyte ZOOM live-cell imaging system (Essen Bioscience, Birmingham, UK) with the corresponding software application (version 2013BRev1). First the growth rate for each cell line was established to estimate the seeding numbers of cells corresponding to 15-30% of confluence at the start of the experiment and maximum 70% after 72h. The drug treatment was initiated approximately 18h after seeding. The proliferation rate was measured as cell confluence over time through the acquisition of photographs under phase contrast every third hour for the entire duration of the drug treatment. During the drug treatment, media were not changed, and cells were not split. The growth reducing drug concentration was defined as lowest drug concentration leading to significant decrease of cellular growth between 40 and 72h after start of treatment. To determine that concentration, plots were generated using IncuCyte software and differences in growth between 40 and 72h were calculated using least-square means with the '[…] package version 1.4.3 [25]. Growth arresting concentrations were defined as minimal drug concentration under which cell confluence between 96 and 120h increases by less than 3%. Though growth arrest occurred much earlier, these time points ensured that the growth arrest is a stable phenomenon. These growth arresting concentrations were used for drug withdrawal, apoptosis and cell cycle experiments. All the data were verified with the plots. The presented values correspond to median values from two ([…], all compounds) to five (all cell lines, triptolide) biological replicates.

Series [15] relates to liposarcoma cell lines. Kind of series: TUNEL apoptosis assay by flow cytometry. Conditions: growth arresting concentration, 17-72h, majority of cell lines. Format: cell-based, human. As to the method: (§2) Cells were treated with drugs at the concentrations corresponding to previously established growth arresting concentrations and collected between 17 and 72h. Time of collection was individual for every drug/cell line combination; cells were collected after the beginning of complete growth inhibition (based on the growth curves data) but only when first signs of morphological change or cell death were visible (estimated microscopically approximately every 2h). After methanol fixation, cells were barcoded with different combinations of Pacific Blue/Pacific Orange dyes (Thermo Fisher Scientific) for different drug treatments. After mixing, cells were incubated in the TUNEL reaction mix for 1h at 37°C, according to the manufacturer’s instructions (Roche, Germany), stained with Streptavidin-Cy5 conjugated Ab and digested with RNAse. Cells were counter-stained with propidium iodide and analyzed using LSR II Flow Cytometer (BD Biosciences, NJ, USA. The data were processed with FlowJo Version 7.6.5 (Tree Star, Ashland, USA). The gating strategy is presented in Fig 3A. Cy-5 positive cells (as compared to control sample) were calculated as apoptotic. Cell cycles of non-apoptotic cells were analyzed using the built in FlowJo Cell Cycle Analysis module. Three independent biological replicates were done for each cell line/drug combination with exception of FU-DDLS-1 and T1000 –for which we only had two replicates available.

In series [16] the test system is liposarcoma cell lines. Kind of series: Cell cycle analysis of non-apoptotic cells (propidium iodide). Type of series: cell-based, human. Conditions: growth arresting concentration, non-apoptotic fraction. As to the method:
as §2

Series [17] has as its system liposarcoma cell lines. As to the kind of experiment: Drug withdrawal, reversibility of growth arrest. Format: cell-based, human. Conditions: 120h treatment at growth arresting concentration, then 72h without drug; except T778 with MLN9708. On the procedure:
The cellular proliferation rate was measured using the IncuCyte ZOOM live-cell imaging system (Essen Bioscience, Birmingham, UK) with the corresponding software application (version 2013BRev1). First the growth rate for each cell line was established to estimate the seeding numbers of cells corresponding to 15–30% of confluence at the start of the experiment and maximum 70% after 72h. The drug treatment was initiated approximately 18h after seeding. The proliferation rate was measured as cell confluence over time through the acquisition of photographs under phase contrast every third hour for the entire duration of the drug treatment. During the drug treatment, media were not changed, and cells were not split. The growth reducing drug concentration was defined as lowest drug concentration leading to significant decrease of cellular growth between 40 and 72h after start of treatment. To determine that concentration, plots were generated using IncuCyte software and differences in growth between 40 and 72h were calculated using least-square means with the ‘emmeans’ R package version 1.4.3 [25]. Growth arresting concentrations were defined as minimal drug concentration under which cell confluence between 96 and 120h increases by less than 3%. Though growth arrest occurred much earlier, these time points ensured that the growth arrest is a stable phenomenon. These growth arresting concentrations were used for drug withdrawal, apoptosis and cell cycle experiments. All the data were verified with the plots. The presented values correspond to median values from two (T449, all compounds) to five (all cell lines, triptolide) biological replicates.
An important prerequisite for clinical implementation of these compounds as treatment for liposarcoma is irreversibility of the induced growth inhibition. We thus assessed if the drugs were only transiently cytostatic, which is especially important in case of the compounds that seem to work mainly via cell cycle arrest (APO866, GSK2126458). Cells were treated with the compounds at growth arresting concentrations for 120h after which the compounds were removed and cell numbers were monitored for another 72h. […] To irreversibly arrest cell proliferation GSK2126458 had to be used at 10x higher concentrations (100x for GOT3) (S5 Fig). Those concentrations are above physiological ranges (see Table 2), and these effects should be accounted for assessing use of GSK2126458 in clinic.

For series [18] the following is noted: cited from earlier work.
The mark [19] stands for this setting: intravenous, phase I, maximum tolerated dose.

Like-named read-outs stand apart in the source and are kept apart here. Where only a bound is given, the exact number is not on record here.

Consider `CC(C)C[C@H](NC(=O)CNC(=O)c1cc(Cl)ccc1Cl)B1OC(=O)C(CC(=O)O)(CC(=O)O)O1` [MLN9708], for which the IC50 in series [1] was 635 nM; in series [2], 99 nM; in series [3], 522 nM; in series [4], 841 nM; in series [5], 95 nM; in series [6] it was 629 nM. The IC50 came to 745 nM in series [7]; 743 nM in [8]; 325 nM in series [9]; 553 nM in series [10]; 463 nM in series [11]; 1030 nM in series [12]. The IC50 in series [13] amounted to 774 nM. In addition, the “concentration required to completely arrest more than half of the cell lines” value with liposarcoma cell lines [14] is recorded as “at least 1 μM”. The “apoptosis (increase in % of apoptotic cells)” value in the series on liposarcoma cell lines [15] was “above 5%”. Also, the “cell cycle phase in which cells are blocked” value in the series on liposarcoma cell lines [16] is “less specific arrest”. Moreover, in the series with liposarcoma cell lines [17], the “reversibility of growth inhibition after drug removal” value is listed as “irreversibly inhibited growth of all tested cell lines”. Moreover, the Cmax in series [18] (human, in vivo) is 30 to 300 nM; in [18] (setting [19]), no more than 1400 nM. The Css in series [18] (setting [19]) is 30 to 300 nM.
